From ChEMBL document CHEMBL3259737, “Lead optimization studies of cinnamic amide EP2 antagonists” (J Med Chem, 2014) come the findings set out here.

In general, fraction remaining refers to the share of the starting amount still present when the sample was taken. A word on the Kp: it is tissue or fluid exposure divided by exposure in the circulation. What is called kinetic solubility is the concentration staying in solution when a stock, usually in DMSO, is diluted into the medium. By Cmax is commonly meant the maximum level reached in the sampled fluid or tissue. Broadly, the Kb is the affinity of an antagonist, worked out from how it opposes an agonist. As a reminder, the CC50 is the concentration that lowers cell viability or growth by half.

Converted amounts (≈) assume the structure as drawn. Some results are limits rather than exact numbers.

Tested on in the first data set: not listed separately
The data set is described as follows: Metabolic stability in mouse liver microsomes assessed as compound remaining at 1 uM after 60 mins.
Details: not given
For the molecule `Cc1cc(/C=C/C(=O)NCCn2c(C)cc3ccccc32)cc(C)c1F`, the amount remaining at 1 h, 1 µM is 18.3%.
The same measure, in the same setting: the same measure for `Cc1cc2ccccc2n1CCNC(=O)/C=C/c1ccc(OCCO)c(OCCO)c1`: 1.7%.
Turning to `COc1cc(/C=C/C(=O)NCCc2c(C)[nH]c3ccccc23)cc(OC)c1OC`, the amount remaining at 1 h, 1 µM was 0%.
As to `Cc1cc(/C=C/C(=O)NCCc2c(C)[nH]c3ccccc23)cc(C)c1F`, the share remaining at 1 h, 1 µM came to 0.1%.
As to `COc1ccc(/C=C/C(=O)NCCc2c(C)[nH]c3ccccc23)cc1OC`, the amount remaining at 1 h, 1 µM came out at 0.2%.
Regarding `COc1cc(/C=C/C(=O)NCCn2c(C)cc3ccccc32)cc(OC)c1OC`, the amount remaining at 1 h, 1 µM came out at 0.2%.
The same measure, in the same setting: the same measure for `Cc1[nH]c2ccccc2c1CCNC(=O)/C=C/c1ccc(OCCO)c(OCCO)c1`: 7.1%.

Tested on in another data set: not listed separately
Briefly: Ratio of drug level in brain to plasma in C57BL/6 mouse at 10 mg/kg, po measured after 1 to 2 hrs.
Details: not given
Turning to `Cc1cc2ccccc2n1CCNC(=O)/C=C/c1ccc(OCCO)c(OCCO)c1`, the partition ratio (Kp) was under 0.1.

Tested on in a further data set: not listed separately
Briefly: physchem. The following applies: PBS buffer, pH 7.4.
In turn, `COc1cc(/C=C/C(=O)NCCn2c(CN3CCOCC3)cc3ccccc32)cc(OC)c1OC` yielded a kinetic solubility of 91 µM (≈ 43.6 µg/mL).
The same measure, in the same setting: the same measure for `Cc1cc(/C=C/C(=O)NCCn2c(C)cc3ccccc32)cc(C)c1F`: under 25 µM.
Same read-out and setting: next, `COc1cc(/C=C/C(=O)NCCn2c(C)cc3ccccc32)cc(OC)c1OCCO`: 66 µM (≈ 28 µg/mL).
In turn, `COc1cc(/C=C/C(=O)NCCc2n[nH]c3ccccc23)cc(OC)c1OC` returned a kinetic solubility of 152 µM (≈ 58 µg/mL).
`Cc1cc2ccccc2n1CCNC(=O)/C=C/c1ccc(OCCO)c(OCCO)c1` yielded a solubility (kinetic) of 153 µM (≈ 64.9 µg/mL).
The molecule `COc1cc(/C=C/C(=O)NCCc2c(C)[nH]c3ccccc23)cc(OC)c1OC` gave a kinetic solubility of 43 µM (≈ 17 µg/mL).
`COc1cc(/C=C/C(=O)NCCn2c(C)cc3ccccc32)cc(OC)c1`: the solubility (kinetic) is under 25 µM.
The same measure, in the same setting: the same measure for `COc1cc(/C=C/C(=O)NCCn2c(C(F)(F)F)cc3ccccc32)cc(OC)c1OCCO`: 35 µM (≈ 16.7 µg/mL); for `Cc1cc(/C=C/C(=O)NCCc2c(C)[nH]c3ccccc23)cc(C)c1F`: under 25 µM; for `O=C(/C=C/c1ccc(OCCO)c(OCCO)c1)NCCn1c(C(F)(F)F)cc2ccccc21`: 67 µM (≈ 32.1 µg/mL).
Same read-out and setting: the same measure for `Cc1cc2ccccc2n1CCNC(=O)/C=C/c1ccc(OCCN(C)C)cc1`: 90 µM (≈ 35.2 µg/mL); for `Cc1cc2ccccc2n1CCNC(=O)/C=C/c1ccc(OCCO)cc1`: 68 µM (≈ 24.8 µg/mL); for `Cc1cc2ccccc2n1CCNC(=O)/C=C/c1ccc(OCCCN(C)C)cc1`: 306 µM (≈ 124 µg/mL).
In turn, `COc1cc(/C=C/C(=O)NCCn2c(CNC3CCN(C)CC3)cc3ccccc32)cc(OC)c1OC` came in with a kinetic solubility of 180 µM (≈ 91.2 µg/mL).
Same read-out and setting: next, `COc1cc(/C=C/C(=O)NCCn2c(C)c(CN3CCCCC3)c3ccccc32)cc(OC)c1OC`: 75 µM (≈ 36.9 µg/mL); `COc1ccc(/C=C/C(=O)NCCc2c(C)[nH]c3ccccc23)cc1OC`: 41 µM (≈ 14.9 µg/mL).
Consider `Cc1cc2ccccc2n1CCNC(=O)/C=C/c1ccc(OCCCO)cc1`, for which the kinetic solubility was 66 µM (≈ 25 µg/mL).
Take `COc1cc(/C=C/C(=O)NCCc2c(C)[nH]c3c(F)cc(F)cc23)cc(OC)c1OC`: the solubility (kinetic) is under 25 µM.
As to `COc1cc(/C=C/C(=O)NCCn2c(C)cc3ccccc32)cc(OC)c1OC`, the solubility (kinetic) is 45 µM (≈ 17.8 µg/mL).
With `Cc1[nH]c2ccccc2c1CCNC(=O)/C=C/c1ccc(OCCO)c(OCCO)c1`, the solubility (kinetic) turned out to be 235 µM (≈ 99.8 µg/mL).
Same read-out and setting: the same measure for `COc1cc(/C=C/C(=O)NCCn2c(C)cc3ccccc32)cc(OC)c1OCCN(C)C`: 180 µM (≈ 81.3 µg/mL); for `COc1cc(/C=C/C(=O)NCCn2c(C)c(CN(C)C)c3ccccc32)cc(OC)c1OC`: 110 µM (≈ 49.7 µg/mL).

Tested on in a further data set: not listed separately
Briefly: Ratio of drug level in brain to plasma in C57BL/6 mouse at 5 mg/kg, ip measured after 1 to 2 hrs.
Details: not given
`Cc1cc2ccccc2n1CCNC(=O)/C=C/c1ccc(OCCO)c(OCCO)c1`: the Kp was under 0.1.

Tested on in the next data set: not listed separately
Briefly: Cmax in C57BL/6 mouse at 3 mg/kg, iv. The following applies: in vivo. The arrangement: dose 3 mg/kg, route intravenous. It is filed as ADME, organism-based.
The molecule `COc1cc(/C=C/C(=O)NCCn2c(C)cc3ccccc32)cc(OC)c1OC` had a Cmax of 2400 ng/mL.

Tested on in another data set: not listed separately
Briefly: in vivo. The settings on record: C57BL/6, mouse, ip, 5 mg/kg.
On to `Cc1cc2ccccc2n1CCNC(=O)/C=C/c1ccc(OCCO)c(OCCO)c1`, for which the Cmax turned out to be 1510 ng/mL.

Tested on in another data set: not listed separately
The data set is described as follows: in vivo. The following applies: C57BL/6, mouse, po, 10 mg/kg.
In the case of `Cc1cc2ccccc2n1CCNC(=O)/C=C/c1ccc(OCCO)c(OCCO)c1`, the concentration peaked (Cmax) at 128 ng/mL.

Tested on in a further data set: not listed separately
The data set is described as follows: Metabolic stability in human liver microsomes assessed as compound remaining at 1 uM after 60 mins.
Details: not given
(Liver microsomes are vesicles of endoplasmic reticulum, rich in cytochrome P450 enzymes.)
On to `Cc1cc(/C=C/C(=O)NCCn2c(C)cc3ccccc32)cc(C)c1F`, for which the amount remaining at 1 h, 1 µM was found to be 20.9%.
Same read-out and setting: the same measure for `Cc1cc2ccccc2n1CCNC(=O)/C=C/c1ccc(OCCO)c(OCCO)c1`: 16.2%.
Still for that read-out and setting: the same measure for `COc1cc(/C=C/C(=O)NCCc2c(C)[nH]c3ccccc23)cc(OC)c1OC`: 0.8%.
Same read-out and setting: next, `Cc1cc(/C=C/C(=O)NCCc2c(C)[nH]c3ccccc23)cc(C)c1F`: 0.4%.
Regarding `COc1ccc(/C=C/C(=O)NCCc2c(C)[nH]c3ccccc23)cc1OC`, the share remaining at 1 h, 1 µM was 12.4%.
On the same count and under the same terms, next, `COc1cc(/C=C/C(=O)NCCn2c(C)cc3ccccc32)cc(OC)c1OC`: 0.1%; `Cc1[nH]c2ccccc2c1CCNC(=O)/C=C/c1ccc(OCCO)c(OCCO)c1`: 58.5%.

The target of another data set is Prostaglandin E2 receptor EP2 subtype (Homo sapiens) (UniProt P43116). Briefly: Competitive antagonist activity at human EP2 receptor expressed in rat C6 cells assessed as parallel rightward shift in PGE2 concentration response curve treated for 10 mins prior to PGE2 challenge for 40 mins by TR-FRET assay. It is filed as cell-based.
Chain of Prostaglandin E2 receptor EP2 subtype (Homo sapiens) (P43116 whole entry): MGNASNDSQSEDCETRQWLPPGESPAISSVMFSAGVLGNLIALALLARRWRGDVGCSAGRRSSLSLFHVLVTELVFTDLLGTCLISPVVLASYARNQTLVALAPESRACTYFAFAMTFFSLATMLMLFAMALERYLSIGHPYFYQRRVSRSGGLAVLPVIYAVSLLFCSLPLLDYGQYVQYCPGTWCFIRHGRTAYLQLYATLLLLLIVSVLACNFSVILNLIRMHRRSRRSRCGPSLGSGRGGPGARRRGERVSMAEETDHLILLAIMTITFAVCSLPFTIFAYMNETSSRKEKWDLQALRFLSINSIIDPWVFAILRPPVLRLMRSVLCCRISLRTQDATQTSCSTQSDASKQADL
Details: not given
For orientation: Time-resolved FRET reads energy transfer from a long-lived donor to a nearby acceptor.
For `COc1cc(/C=C/C(=O)NCCn2c(C)cc3ccccc32)cc(OC)c1OCCO`, the antagonist equilibrium constant (Kb) was 0.0067 µM and the inhibition entry was “Dose-dependent effect”.

Tested on in the next data set: not listed separately
Briefly: Metabolic stability in mouse liver microsomes assessed as compound remaining at 10 uM after 60 mins.
Details: not given
As to `Cc1cc(/C=C/C(=O)NCCn2c(C)cc3ccccc32)cc(C)c1F`, the amount remaining at 1 h, 10 µM was determined as 13%.
The same measure, in the same setting: the same measure for `Cc1cc2ccccc2n1CCNC(=O)/C=C/c1ccc(OCCO)c(OCCO)c1`: 8.7%; for `COc1cc(/C=C/C(=O)NCCc2c(C)[nH]c3ccccc23)cc(OC)c1OC`: 0.2%; for `Cc1cc(/C=C/C(=O)NCCc2c(C)[nH]c3ccccc23)cc(C)c1F`: 51.7%.
On the same count and under the same terms, next, `COc1ccc(/C=C/C(=O)NCCc2c(C)[nH]c3ccccc23)cc1OC`: 0.1%; `COc1cc(/C=C/C(=O)NCCn2c(C)cc3ccccc32)cc(OC)c1OC`: 4.8%.
Same read-out and setting: the same measure for `Cc1[nH]c2ccccc2c1CCNC(=O)/C=C/c1ccc(OCCO)c(OCCO)c1`: 19.3%.

The subject of the next data set is C6. Briefly: Cytotoxicity against rat C6 cells assessed as cell viability.
Details: not given
Regarding `Cc1cc(/C=C/C(=O)NCCn2c(C)cc3ccccc32)cc(C)c1F`, the CC50 was 368 µM.
Still for that read-out and setting: the same measure for `COc1cc(/C=C/C(=O)NCCn2c(C)cc3ccccc32)cc(OC)c1OCCO`: 43.3 µM; for `Cc1cc2ccccc2n1CCNC(=O)/C=C/c1ccc(OCCO)c(OCCO)c1`: 92.3 µM; for `COc1cc(/C=C/C(=O)NCCc2c(C)[nH]c3ccccc23)cc(OC)c1OC`: 59.5 µM.
On the same count and under the same terms, next, `COc1cc(/C=C/C(=O)NCCn2c(C(F)(F)F)cc3ccccc32)cc(OC)c1OCCO`: 31.2 µM; `Cc1cc(/C=C/C(=O)NCCc2c(C)[nH]c3ccccc23)cc(C)c1F`: 317 µM.
The same measure, in the same setting: next, `Cc1cc2ccccc2n1CCNC(=O)/C=C/c1ccc(OCCO)cc1`: 81.7 µM; `COc1ccc(/C=C/C(=O)NCCc2c(C)[nH]c3ccccc23)cc1OC`: 246 µM.
In the case of `Cc1cc2ccccc2n1CCNC(=O)/C=C/c1ccc(OCCCO)cc1`, the half-maximal cytotoxic concentration (CC50) was 36.6 µM.
With `COc1cc(/C=C/C(=O)NCCn2c(C)cc3ccccc32)cc(OC)c1OC`, the CC50 came out at 172 µM.
As for `Cc1[nH]c2ccccc2c1CCNC(=O)/C=C/c1ccc(OCCO)c(OCCO)c1`, the CC50 was found to be 126 µM.

Tested on in the next data set: not listed separately
Briefly: Metabolic stability in human liver microsomes assessed as compound remaining at 10 uM after 60 mins.
Details: not given
Take `Cc1cc(/C=C/C(=O)NCCn2c(C)cc3ccccc32)cc(C)c1F`: the amount remaining at 1 h, 10 µM is 24%.
Same read-out and setting: the same measure for `COc1cc(/C=C/C(=O)NCCc2c(C)[nH]c3ccccc23)cc(OC)c1OC`: 5.8%; for `Cc1cc(/C=C/C(=O)NCCc2c(C)[nH]c3ccccc23)cc(C)c1F`: 21.4%.
As for `COc1ccc(/C=C/C(=O)NCCc2c(C)[nH]c3ccccc23)cc1OC`, the fraction remaining at 1 h, 10 µM worked out at 18.6%.
As to `COc1cc(/C=C/C(=O)NCCn2c(C)cc3ccccc32)cc(OC)c1OC`, the amount remaining at 1 h, 10 µM was determined as 10.6%.
Turning to `Cc1[nH]c2ccccc2c1CCNC(=O)/C=C/c1ccc(OCCO)c(OCCO)c1`, the share remaining at 1 h, 10 µM came out at 70.4%.

Tested on in another data set: not listed separately
Briefly: Terminal half life in C57BL/6 mouse plasma at 3 mg/kg, ip. The settings on record: read-out: beta t1/2 (converted). The arrangement: dose 3 mg/kg, route intraperitoneal. It is filed as ADME, organism-based.
Turning to `Cc1cc(/C=C/C(=O)NCCn2c(C)cc3ccccc32)cc(C)c1F`, the half-life was 34.8 min.
